The target in assay [1] is T1, PAD4 enzyme (Homo sapiens (Human), UniProt Q9UM07). Put plainly: Ammonia Release Biochemical Assay (citrullination detected via ammonia release). As to conditions: PAD4 120 nM, substrate BAEE, 60-min preincubation, read-out: NH3 release. The method in brief:
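PAD4 (diluted to 120 nM) was preincubated 60 min at room temperature with compound (1% DMSO final) in HEPES pH 7.4 with DTT and BSA, then reacted 60 min with 1.5 mM BAEE in Ca2+-containing buffer. Ammonia released was detected after EDTA stop with o-phthalaldehyde/DTT (90 min, fluorescence ex 405/em 460 nm), giving IC50.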

In assay [2] the target is T1, PAD4 enzyme. Put plainly: FP Binding Assay. Conditions: for IC50: PAD4 1 uM, 10 nM fluorescein labelled probe JPAD-00085. The method, then: Binding of compounds with PAD4 enzyme was detected by FP assay. PAD4 enzyme was diluted to 1 uM in assay buffer (100 mM HEPES, 50 mM NaCl, 1 mM DTT, 5% Glycerol and 1 mM CHAPS) and added to wells containing various concentration of compounds or DMSO vehicle (1%) in a 384 well black plate. 10 nM of fluorescein labelled probe (JPAD-00085) was added to the plate. Assay plate was incubated for 60 minutes at room temperature before measuring FP reading at FP module (λex 485/λem 535 nm) on Pherastar. IC50 was calculated using XL-fit software model 205. (Ref: Nat Chem Biol. 2015 March; 11(3):189-91).

The structures appear in SMILES notation.

T1 sequence (Q9UM07 whole entry): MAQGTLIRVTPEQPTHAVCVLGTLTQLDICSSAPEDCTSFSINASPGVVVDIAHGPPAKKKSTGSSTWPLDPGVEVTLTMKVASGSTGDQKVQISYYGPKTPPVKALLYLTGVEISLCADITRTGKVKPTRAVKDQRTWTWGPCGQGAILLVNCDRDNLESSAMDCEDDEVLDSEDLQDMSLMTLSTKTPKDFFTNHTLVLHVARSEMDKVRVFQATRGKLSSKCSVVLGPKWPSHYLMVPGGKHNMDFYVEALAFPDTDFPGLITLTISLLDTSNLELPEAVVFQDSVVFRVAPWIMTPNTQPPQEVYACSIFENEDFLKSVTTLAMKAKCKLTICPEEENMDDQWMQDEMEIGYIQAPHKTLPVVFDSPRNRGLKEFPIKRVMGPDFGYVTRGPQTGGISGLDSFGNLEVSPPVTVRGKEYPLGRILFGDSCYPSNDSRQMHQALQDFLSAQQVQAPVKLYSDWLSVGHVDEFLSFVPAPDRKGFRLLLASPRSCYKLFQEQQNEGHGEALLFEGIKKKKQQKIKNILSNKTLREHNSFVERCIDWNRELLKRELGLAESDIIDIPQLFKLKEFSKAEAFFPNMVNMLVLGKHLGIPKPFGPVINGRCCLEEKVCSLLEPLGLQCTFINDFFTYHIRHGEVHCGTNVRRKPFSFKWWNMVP

In the case of `N[C@@H]1CCCN(C(=O)c2cc3c4c(c2)nc(-c2cc5ccccc5n2Cc2ccc(F)cc2)n4CCO3)C1` [Example 15, (R)-(3-aminopiperidin-1-yl)(2-(1-(4-fluorobenzyl)-1H-indol-2-yl)-3,4-dihydro-5-oxa-1,2a-diazaacenaphthylen-7-yl)methanone], the IC50 in assay [1] is at most 1 µM; in assay [2], 1 to 10 µM. The like results for `N[C@@H]1CCCN(C(=O)c2cc3c4c(c2)nc(-c2cc5ccccc5n2Cc2ccc(Cl)cc2)n4CCO3)C1` [Example 13, (R)-(3-aminopiperidin-1-yl)(2-(1-(4-chlorobenzyl)-1H-indol-2-yl)-3,4-dihydro-5-oxa-1,2a-diazaacenaphthylene-7-yl)methanone] were, in that order, at most 1 µM and 1 to 10 µM.

Regarding `COc1cc2cc(-c3nc4cc(C(=O)N5CCC[C@@H](N)C5)cc5c4n3CCO5)n(CC3CC3)c2cc1OC` [Example 17, (R)-(3-aminopiperidin-1-yl)(2-(1-(cyclopropylmethyl)-5,6-dimethoxy-1H-indol-2-yl)-3,4-dihydro-5-oxa-1,2a-diazaacenaphthylen-7-yl)methanone], the IC50 in assay [1] is at most 1 µM; in assay [2], 1 to 10 µM. On the same counts, the results for `N[C@@H]1CCCN(C(=O)c2cc3c4c(c2)nc(-c2cc5ccc(F)cc5n2CC2CC2)n4CCN3)C1` [Example 65, (R)-(3-aminopiperidin-1-yl)(2-(1-(cyclopropylmethyl)-6-fluoro-1H-indol-2-yl)-5,6-dihydro-4H-imidazo [1,5,4-de]quinoxalin-8-yl)methanone] are at most 1 µM and at most 1 µM. The like results for `N[C@@H]1CCCN(C(=O)c2cc3c4c(c2)nc(-c2cc5ccccc5n2Cc2cccnc2)n4CCN3)C1` [Example 66, (R)-(3-aminopiperidin-1-yl)(2-(1-(pyridin-3-ylmethyl)-1H-indol-2-yl)-5,6-dihydro-4H-imidazo [1,5,4-de]quinoxalin-8-yl)methanone] were, in that order, at most 1 µM and 1 to 10 µM. Take `COc1ccc(Cn2c(-c3nc4cc(C(=O)N5CCC[C@@H](N)C5)cc5c4n3CCO5)cc3ccccc32)cc1` [Example 19, (R)-(3-aminopiperidin-1-yl)(2-(1-(4-methoxybenzyl)-1H-indol-2-yl)-3,4-dihydro-5-oxa-1,2a-diazaacenaphthylen-7-yl)methanone]: in assay [2], the “inhibition of PAD4 enzyme activity in FP Binding assay” value (from here on “inhibition of PAD4 enzyme activity”) is reported as “actively inhibiting PAD4 enzyme activity”. On to `CCn1c(-c2nc3cc(C(=O)N4CCC[C@@H](N)C4)cc4c3n2CCO4)cc2cccnc21` [Example 5, (R)-(3-aminopiperidin-1-yl)(2-(1-ethyl-1H-pyrrolo[2,3-b]pyridin-2-yl)-3,4-dihydro-5-oxa-1,2a-diazaacenaphthylen-7-yl)methanone], for which the IC50 in assay [1] and in assay [2] was 1 to 10 µM throughout. Consider `N[C@@H]1CCCN(C(=O)c2cc3c4c(c2)nc(-c2cc5cc(F)c(F)cc5n2CC2CC2)n4CCN3)C1` [Example 77, (R)-(3-aminopiperidin-1-yl)(2-(1-(cyclopropylmethyl)-5,6-difluoro-1H-indol-2-yl)-5,6-dihydro-4H-imidazo[1,5,4-de]quinoxalin-8-yl)methanone], for which the “inhibition of PAD4 enzyme activity” value in assay [2] was “actively inhibiting PAD4 enzyme activity”. The same measure, in the same setting: then `COc1ccc2cc(-c3nc4cc(C(=O)N5CCC[C@@H](N)C5)cc5c4n3CCN5)n(CC3CC3)c2c1` [Example 73, (R)-(3-aminopiperidin-1-yl)(2-(1-(cyclopropylmethyl)-6-methoxy-1H-indol-2-yl)-5,6-dihydro-4H-imidazo[1,5,4-de]quinoxalin-8-yl)methanone], with “actively inhibiting PAD4 enzyme activity”. `N[C@@H]1CCCN(C(=O)c2cc3c4c(c2)nc(-c2cc5ccccc5n2Cc2cccnc2)n4CCO3)C1` [Example 16, (R)-(3-aminopiperidin-1-yl)(2-(1-(pyridin-3-ylmethyl)-1H-indol-2-yl)-3,4-dihydro-5-oxa-1,2a-diazaacenaphthylen-7-yl)methanone]: the IC50 in assay [1] is at most 1 µM; in assay [2], 1 to 10 µM. Turning to `CN1CCn2c(-c3cc4ccccc4n3CC3CC3)nc3cc(C(=O)N4CCC[C@@H](N)C4)cc1c32` [Example 72, (R)-(3-aminopiperidin-1-yl)(2-(1-(cyclopropylmethyl)-1H-indol-2-yl)-6-methyl-5,6-dihydro-4H-imidazo[1,5,4-de]quinoxalin-8-yl)methanone], in assay [2], the “inhibition of PAD4 enzyme activity” value is reported as “actively inhibiting PAD4 enzyme activity”.

In the case of `N[C@@H]1CCCN(C(=O)c2cc3c4c(c2)nc(-c2cc5cc(F)ccc5n2CC2CC2)n4CCO3)C1` [Example 9, (R)-(3-aminopiperidin-1-yl)(2-(1-(cyclopropylmethyl)-5-fluoro-1H-indol-2-yl)-3,4-dihydro-5-oxa-1,2a-diazaacenaphthylen-7-yl)methanone], the IC50 in assay [1] and in assay [2] was at most 1 µM in each case. With `N[C@@H]1CCCN(C(=O)c2cc3c4c(c2)nc(-c2cc5ccccc5n2Cc2ccccc2)n4CCO3)C1` [Example 18, (R)-(3-aminopiperidin-1-yl)(2-(1-benzyl-1H-indol-2-yl)-3,4-dihydro-5-oxa-1,2a-diazaacenaphthylen-7-yl)methanone], the IC50 in assay [1] was at most 1 µM; in assay [2], 1 to 10 µM. On the same counts, the results for `CS(=O)(=O)N1CCn2c(-c3cc4ccccc4n3CC3CC3)nc3cc(C(=O)N4CCC[C@@H](N)C4)cc1c32` [Example 76, (R)-(3-aminopiperidin-1-yl)(2-(1-(cyclopropylmethyl)-1H-indol-2-yl)-6-(methylsulfonyl)-5,6-dihydro-4H-imidazo[1,5,4-de]quinoxalin-8-yl)methanone] are at most 1 µM and 1 to 10 µM. In the case of `N[C@@H]1CCCN(C(=O)c2cc3c4c(c2)nc(-c2cc5ccccc5n2Cc2ccccc2F)n4CCO3)C1` [Example 14, (R)-(3-aminopiperidin-1-yl)(2-(1-(2-fluorobenzyl)-1H-indol-2-yl)-3,4-dihydro-5-oxa-1,2a-diazaacenaphthylene-7-yl)methanone], in assay [1], the IC50 lay within 1 to 10 µM. Also, the “inhibition of PAD4 enzyme activity” value in assay [2] is reported as “actively inhibiting PAD4 enzyme activity”. For the compound `N[C@@H]1CCCN(C(=O)c2cc3c4c(c2)nc(-c2cc5ccccc5n2CC2CC2)n4CCO3)C1` [Example 1, (R)-(3-aminopiperidin-1-yl)(2-(1-(cyclopropylmethyl)-1H-indol-2-yl)-3,4-dihydro-5-oxa-1,2a-diazaacenaphthylen-7-yl)methanone], the IC50 in assay [2] lay in the range of 1 to 10 µM. Consider `N[C@@H]1CCCN(C(=O)c2cc3c4c(c2)nc(-c2cc5c(F)cccc5n2CC2CC2)n4CCN3)C1` [Example 80, (R)-(3-aminopiperidin-1-yl)(2-(1-(cyclopropylmethyl)-4-fluoro-1H-indol-2-yl)-5,6-dihydro-4H-imidazo[1,5,4-de]quinoxalin-8-yl)methanone], for which the IC50 in assay [1] lay within 1 to 10 µM. Still for that read-out and setting: then `N[C@@H]1CCCN(C(=O)c2cc3c4c(c2)nc(-c2cc5ccccc5n2CC2CCOCC2)n4CCO3)C1` [Example 40, (R)-(3-aminopiperidin-1-yl)(2-(1-((tetrahydro-2H-pyran-4-yl)methyl)-1H-indol-2-yl)-3,4-dihydro-5-oxa-1,2a-diazaacenaphthylen-7-yl)methanone], with 1 to 10 µM.

The record behind these values is patent US11833156B2, “Heterocyclic compounds as pad inhibitors” (JUBILANT EPIPAD LLC, priority 2017, dated 2023).
